Experimental data taken from paper PMC10294832, “Investigation of Naphthyl–Polyamine Conjugates as Antimicrobials and Antibiotic Enhancers” (Antibiotics, 2023).
pIC50: −log10 of the molar value. Where “and” joins values, the source holds several entries; their conditions need not be identical. Identical values can stand only once. Like-named read-outs stand apart in the source and are kept apart here.

Legend:
[1] = system: S. aureus (ATCC 25,923 or ATCC 29213); test: Antimicrobial MIC, S. aureus; assay type: cell-based, Staphylococcus aureus; details: Staphylococcus aureus, mean (n = 3)
Experimental: (§1) The susceptibility of bacterial strains S. aureus (ATCC 25,923 or 29213), E. coli (ATCC 25922), and P. aeruginosa (ATCC 27853) to antibiotics and compounds was determined according to previously reported protocols. Additional antimicrobial evaluation against MRSA (ATCC 43300), Klebsiella pneumoniae (ATCC 700603), Acinetobacter baumannii (ATCC 19606), Candida albicans (ATCC 90028), and Cryptococcus neoformans (ATCC 208821) was undertaken at the Community for Open Antimicrobial Drug Discovery at The University of Queensland (Australia) according to their standard protocols as reported previously.

[2] = system: MRSA (ATCC 43300); test: Antimicrobial MIC, MRSA; assay type: cell-based, methicillin-resistant Staphylococcus aureus; details: MRSA (ATCC 43300), mean (n = 2), read-out: MIC MRSA
Experimental: as §1

[3] = system: P. aeruginosa (PAO1 or ATCC 27853); test: Antimicrobial MIC, P. aeruginosa; assay type: cell-based; details: Pseudomonas aeruginosa; P. aeruginosa (PAO1 or ATCC 27853); mean (n = 3); read-out: MIC P. a
Experimental: as §1

[4] = system: E. coli (ATCC 25922); test: Antimicrobial MIC, E. coli; assay type: cell-based, Escherichia coli; details: Escherichia coli, ATCC25922, E. coli (ATCC 25922); mean (n = 2)
Experimental: as §1

[5] = system: K. pneumoniae (ATCC 700603); test: Antimicrobial MIC, K. pneumoniae; assay type: cell-based; details: Klebsiella pneumoniae, ATCC700603, mean (n = 2)
Experimental: as §1

[6] = system: A. baumannii (ATCC 19606); test: Antimicrobial MIC, A. baumannii; assay type: cell-based, Acinetobacter baumannii; details: mean (n = 2)
Experimental: as §1

[7] = system: C. albicans (ATCC 90028); test: Antifungal MIC, C. albicans; assay type: cell-based; details: Candida albicans, ATCC90028, mean (n = 2)
Experimental: as §1

[8] = system: C. neoformans (ATCC 208821); test: Antifungal MIC, C. neoformans; assay type: cell-based, Cryptococcus neoformans; details: mean (n = 2)
Experimental: as §1

[9] = Cytotoxicity assay; assay type: cell-based, human; details: human, HEK293 human embryonic kidney cells, concentration at 50% cytotoxicity on HEK293 cells; mean (n = 2)
Experimental: Cytotoxicity assays were conducted using the protocols previously reported.

[10] = system: human red blood cells; test: Hemolytic assay; assay type: cell-based; details: concentration at 10% hemolytic activity on human red blood cells; mean (n = 2)
Experimental: Hemolysis assays were conducted using the protocols previously reported.

[11] = system: P. aeruginosa (ATCC 27853); test: Enhancement of doxycycline activity; assay type: cell-based, Pseudomonas aeruginosa; details: for Dox/P.a: concentration required to restore doxycycline activity (combination MIC): doxycycline fixed at 4.5 µM (2 µg/mL), P. aeruginosa (ATCC 27853); for Dox/P.a fold change: ratio between intrinsic MIC of test compound and combination MIC, doxycycline 4.5 µM, P. aeruginosa
[12] = system: E. coli (ATCC 25922); test: Enhancement of erythromycin activity; assay type: cell-based, Escherichia coli; details: for Eryth/E.c: concentration required to restore erythromycin activity (combination MIC): erythromycin fixed at 10.9 µM (8 µg/mL), E. coli (ATCC 25922); for Eryth/E.c fold change: ratio between intrinsic MIC of test compound and combination MIC, erythromycin 10.9 µM, E. coli
Experimental: Restoring enhancer concentrations were determined using previously reported protocols.

[13] = Acinetobacter baumannii, ATCC19606, A. baumannii (ATCC 19606)
[14] = Cryptococcus neoformans, ATCC208821, C. neoformans (ATCC 208821)

| SMILES | MIC [1] [µM] | MIC ([2]; Staphylococcus aureus) [µM] | MIC [3] [µM] | MIC [4] [µM] | MIC [5] [µM] | MIC [6, 13] [µM] | MIC [7] [µM] | MIC [8, 14] [µM] | pIC50 [9] | Hemolysis HC10 [10] | Dox/P.a: concentration required to restore doxycycline activity (combination MIC) [11] [µM] | Dox/P.a fold change [11] [fold] | Eryth/E.c: concentration required to restore erythromycin activity (combination MIC) [12] [µM] | Eryth/E.c fold change [12] [fold] | melting point [°C] | MIC [2] [µM] | MIC ([6]; A. baumannii (ATCC 19606)) [µM] | MIC ([8]; C. neoformans (ATCC 208821)) [µM] |
| --- | --- | --- | --- | --- | --- | --- | --- | --- | --- | --- | --- | --- | --- | --- | --- | --- | --- | --- |
| O=C(CCC(=O)Nc1ccc(-c2ccccc2)cc1)NCCCNCCCCCCNCCCNC(=O)CCC(=O)Nc1ccc(-c2ccccc2)cc1.O=C(O)C(F)(F)F.O=C(O)C(F)(F)F [Compound 21b, N^1,N^6-Bis(3-(4-([1,1’-biphenyl]-4-ylamino)-4-oxobutanamido)propyl)hexane-1,6-diaminium 2,2,2-trifluoroacetate] | 300 | 2.08 | 300 | 300 | > 33.3 | > 33.3 | > 33.3 | > 33.3 | < 4.48 | >33.3 µM | 300 | 1 | 300 | 1 | 200 to 202 |  |  |  |
| O=C(NCCCNCCCCCCNCCCNC(=O)c1cccc2ccccc12)c1cccc2ccccc12.O=C(O)C(F)(F)F.O=C(O)C(F)(F)F [Compound 17b, N^1,N^6-Bis(3-(1-naphthamido)propyl)hexane-1,6-diaminium 2,2,2-trifluoroacetate] | 200 | > 41.7 | 200 | 200 | > 41.7 | > 41.7 | > 41.7 | > 41.7 | < 4.38 | >41.7 µM | 12.5 | 16 | 100 | 2 | 225 to 227 |  |  |  |
| O=C(CCC(=O)Nc1ccc(-c2ccccc2)cc1)NCCCNCCCCCCCCNCCCNC(=O)CCC(=O)Nc1ccc(-c2ccccc2)cc1.O=C(O)C(F)(F)F.O=C(O)C(F)(F)F [Compound 21d, N^1,N^8-Bis(3-(4-([1,1’-biphenyl]-4-ylamino)-4-oxobutanamido)propyl)octane-1,8-diaminium 2,2,2-trifluoroacetate] | 300 | 0.506 | 300 | 300 | > 32.4 | > 32.4 | > 32.4 | > 32.4 | < 4.49 | >32.4 µM | 300 | 1 | 300 | 1 | 182 to 184 |  |  |  |
| O=C(NCCCNCCCCNCCCNC(=O)c1cccc2ccccc12)c1cccc2ccccc12.O=C(O)C(F)(F)F.O=C(O)C(F)(F)F [Compound 17a, N^1,N^4-Bis(3-(1-naphthamido)propyl)butane-1,4-diaminium 2,2,2-trifluoroacetate] | 677 | > 43.3 | 677 | 677 | > 43.3 | > 43.3 | > 43.3 | > 43.3 |  |  | 271 | 2.5 | 67.7 | 10 | 238 to 239 |  |  |  |
| O=C(O)CCC(=O)Nc1ccc(-c2ccccc2)cc1 [Compound 12, 4-([1,1’-Biphenyl]-4-ylamino)-4-oxobutanoic Acid] |  |  |  |  |  |  |  |  |  |  |  |  |  |  | > 230 |  |  |  |
| O=C(CCC(=O)Nc1ccc(-c2ccccc2)cc1)NCCCNCCCCNCCCNC(=O)CCC(=O)Nc1ccc(-c2ccccc2)cc1.O=C(O)C(F)(F)F.O=C(O)C(F)(F)F [Compound 21a, N^1,N^4-Bis(3-(4-([1,1’-biphenyl]-4-ylamino)-4-oxobutanamido)propyl)butane-1,4-diaminium 2,2,2-trifluoroacetate] | 300 | 0.268 | 300 | 300 | > 34.3 | > 34.3 | > 34.3 | > 34.3 | < 4.46 | 31.4 µM | 300 | 1 | 300 | 1 | 203 to 205 |  |  |  |
| O=C(CCC(=O)Nc1ccc(-c2ccccc2)cc1)NCCCNCCCCCCCCCCNCCCNC(=O)CCC(=O)Nc1ccc(-c2ccccc2)cc1.O=C(O)C(F)(F)F.O=C(O)C(F)(F)F [Compound 21e, N^1,N^10-Bis(3-(4-([1,1’-biphenyl]-4-ylamino)-4-oxobutanamido)propyl)decane-1,10-diaminium 2,2,2-trifluoroacetate] | 300 | 0.246 | 300 | 300 | > 31.5 | > 31.5 | 31.5 | 15.7 | < 4.50 | 6.3 µM and 6.32 µM | 300 | 1 | 300 | 1 | 184 to 186 |  |  |  |
| O=C(CCC(=O)Nc1ccc(-c2ccccc2)cc1)NCCCNCCCCCCCNCCCNC(=O)CCC(=O)Nc1ccc(-c2ccccc2)cc1.O=C(O)C(F)(F)F.O=C(O)C(F)(F)F [Compound 21c, N^1,N^7-Bis(3-(4-([1,1’-biphenyl]-4-ylamino)-4-oxobutanamido)propyl)heptane-1,7-diaminium 2,2,2-trifluoroacetate] | 200 | 0.256 | 300 | 300 | > 32.8 | > 32.8 | > 32.8 | > 32.8 | < 4.48 | >32.8 µM | 300 | 1 | 300 | 1 | 178 to 180 |  |  |  |
| O=C(O)CCC(=O)Nc1cccc2ccccc12 [Compound 9, 4-(Naphthalen-1-ylamino)-4-oxobutanoic Acid] |  |  |  |  |  |  |  |  |  |  |  |  |  |  | 165 to 167 |  |  |  |
| O=C(CCC(=O)Nc1ccc2ccccc2c1)NCCCNCCCCCCNCCCNC(=O)CCC(=O)Nc1ccc2ccccc2c1.O=C(O)C(F)(F)F.O=C(O)C(F)(F)F [Compound 20b, N^1,N^6-Bis(3-(4-(naphthalen-2-ylamino)-4-oxobutanamido)propyl)hexane-1,6-diaminium 2,2,2-trifluoroacetate] | > 200 | > 35.2 | > 200 | 50 | > 35.2 | > 35.2 | > 35.2 | 35.2 | < 4.45 | >35.2 µM | 25 | > 8 | 50 | 1 |  |  |  |  |
| O=C(NCCCNCCCCCCCCCCCCNCCCNC(=O)c1ccc2ccccc2c1)c1ccc2ccccc2c1.O=C(O)C(F)(F)F.O=C(O)C(F)(F)F [Compound 19f, N^1,N^12-Bis(3-(2-naphthamido)propyl)dodecane-1,12-diaminium 2,2,2-trifluoroacetate] | 100 | 0.29 | 300 | 300 | > 37.6 | 0.29 | > 37.6 | 0.29 | < 4.42 | >37.6 µM | 300 | 1 | 300 | 1 |  | 0.294 | 0.294 | 0.294 |
